Three compounds from patent US20110237659A1, “CHROMENONE DERIVATIVES AS TRPV3 ANTAGONISTS” (GLENMARK PHARMACEUTICALS S.A., priority 2008, published 2011) can be followed below.

Each structure is given as a SMILES string.

The experiment deals with T1, Human TRPV3 (Homo sapiens, UniProt Q8NET8).
T1 construct: expressed in transfected cells; host or cells: CHO cells
T1 sequence (Q8NET8 1-790): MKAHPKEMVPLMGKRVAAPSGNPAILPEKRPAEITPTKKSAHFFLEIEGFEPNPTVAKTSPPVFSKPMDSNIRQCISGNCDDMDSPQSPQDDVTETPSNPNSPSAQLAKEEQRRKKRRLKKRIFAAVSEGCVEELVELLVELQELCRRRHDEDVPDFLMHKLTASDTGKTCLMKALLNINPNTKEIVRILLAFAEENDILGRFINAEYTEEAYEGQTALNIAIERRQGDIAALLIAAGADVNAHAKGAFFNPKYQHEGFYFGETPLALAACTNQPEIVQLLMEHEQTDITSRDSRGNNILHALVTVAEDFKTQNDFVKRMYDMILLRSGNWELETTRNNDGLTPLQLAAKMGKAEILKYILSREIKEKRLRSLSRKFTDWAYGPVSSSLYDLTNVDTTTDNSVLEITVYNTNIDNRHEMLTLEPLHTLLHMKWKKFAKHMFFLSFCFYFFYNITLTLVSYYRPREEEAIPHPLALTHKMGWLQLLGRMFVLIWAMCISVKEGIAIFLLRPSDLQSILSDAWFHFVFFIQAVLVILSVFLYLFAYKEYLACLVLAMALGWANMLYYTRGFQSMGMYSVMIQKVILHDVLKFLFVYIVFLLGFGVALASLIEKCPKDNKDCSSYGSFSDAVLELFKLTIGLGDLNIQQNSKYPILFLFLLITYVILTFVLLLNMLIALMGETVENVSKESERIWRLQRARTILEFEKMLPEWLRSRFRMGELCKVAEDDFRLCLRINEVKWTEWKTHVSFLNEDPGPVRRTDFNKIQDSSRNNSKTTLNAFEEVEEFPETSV
The experiment is described as follows: 45Calcium uptake assay: inhibition of 2-APB induced cellular uptake of radioactive calcium in human TRPV3 expressing CHO cells. Format: cell-based. The note with it: 2-APB 500 μM; for inhibition at 1 µM: 1.0 μM test compound, read-out: Percentage inhibition at 1.0 μM; for inhibition at 10 µM: 10.0 μM test compound, read-out: Percentage inhibition at 10.0 μM. The source says: The illustrative examples of the present invention are screened for TRPV3 activity according to a modified procedure described in (a) Tóth, A. et al. Life Sciences 2003, 73, 487-498. (b) McNamara C, R. et al. Proc. Natl. Acad. Sci. U.S.A., 2007, 104, 13525-13530. The screening of the compounds can be carried out by other methods and procedures known to persons skilled in the art.
Screening for TRPV3 Antagonist Using the ^45Calcium Uptake Assay
The inhibition of TRPV3 receptor activation was followed as inhibition of 2-aminoethxydiphenylborate (2-APB) induced cellular uptake of radioactive calcium. Test compounds were dissolved in dimethyl sulfoxide (DMSO) to prepare 20 mM stock solution and then diluted using plain medium with DMEM/F-12 containing 1.8 mM CaCl2 to get desired concentration. Final concentration of DMSO in the reaction was 0.5% (v/v). Human TRPV3 expressing CHO cells were grown in DMEM/F-12 medium with 10% FBS, 1% penicillin-streptomycin solution, 400 μg/mL of G-418. Cells were seeded 24 h prior to the assay in 96 well plates so as to get ˜50,000 cells per well on the day of experiment. Cells were treated with test compounds for 10 minutes followed by addition of 2-APB at a final concentration of 500 μM and 5 μCi/mL ^45Ca^+2 for 4 minutes. Cells were washed and lysed using buffer containing 1% Triton X-100, 0.1% deoxycholate and 0.1% SDS. Radioactivity in the lysate was measured in Packardt Top count after addition of liquid scintillant. Concentration response curves were plotted as a % of maximal response obtained in the absence of test antagonist. IC50 value was calculated from concentration response curve by nonlinear regression analysis using GraphPad PRISM software.
Percentage inhibition at concentrations of 1.0 μM and 10.0 μM are given in the table along with IC50 (nM) values for selected examples.

What is called inhibition is the change of the read-out against control, counted positive when it falls. Usually IC50 stands for the point on the concentration scale where inhibition reaches its midpoint. In the case of `N#Cc1ccc(-c2c(/C=C/c3cccc(OC(F)F)c3OCC3CC3)oc3ccccc3c2=O)cc1` [Example 4, 4-(2-{(E)-2-[2-(Cyclopropylomethoxy)-3-(difluoromethoxy)phenyl]vinyl}-4-oxo-4H-3-chromenyl}benzonitrile], the inhibition at 1 µM is 92.9%, the inhibition at 10 µM was determined as 94.8% and the IC50 lay in the range of 150 to 1000 nM.
On to `COc1cccc(/C=C/c2oc3ccccc3c(=O)c2-c2ccc(C#N)cc2)c1OCCC(F)(F)F` [Example 9, 4-(2-{(E)-2-[3-Methoxy-2-(3,3,3-trifluoropropoxy)phenyl]-1-ethenyl}-4-oxo-4H-3-chromenyl}benzonitrile], for which the inhibition at 1 µM was determined as 94.5%, the inhibition at 10 µM is 98% and the IC50 fell in the range of 50 to 150 nM.
Consider `COc1cccc(/C=C/c2oc3ccccc3c(=O)c2-c2ccc(C#N)cc2)c1O` [Example 6, 4-{2-[(E)-2-(2-Hydroxy-3-methoxyphenyl)-1-ethenyl]-4-oxo-4H-3-chromenyl}-benzonitrile], for which the inhibition at 1 µM was found to be 32.1% and the inhibition at 10 µM came to 83.9%.
